According to US4345938A, “Herbicidal 2-haloacetanilides” (Monsanto Company, priority 1980, dated 1982):
Read-outs that look alike come from different tables or passages of the source.

Columns and labels:
Format in all cases: in vivo
[1] = tested on: Sagittaria trifolia; experiment: Field transplant rice test, applied 0 DAT, ST; details: 0 h, read-out: Percent Inhibition, ST; for inhibition at 375 g/ha: 0.375 Kg/Ha; for inhibition at 750 g/ha: 0.75 Kg/Ha; for inhibition at 1500 g/ha: 1.5 Kg/Ha; for inhibition at 3000 g/ha: 3.0 Kg/Ha
Description: (§1) The test data in Table III for all compounds was obtained under identical test conditions. The weeds used in the tests herein have the following abbreviations in the tables: Echinochloa crus-galli (EC), Monochloria vaginalis (MV), Cyperus Serotinus (CS), Eleocharis Kuroguwai (EK) and Sagittaria trifolia (ST).
(§2) In further comparative tests, a preferred compound of this invention (Example 1) was tested in the field with prior art Compounds A-D. These tests were conducted under conditions reflecting herbicide application times generally favorable to all herbicides in the test. The timing of application of herbicides to transplant rice is very important, whether, as in some instances, prior to transplanting the rice; in other instances, at the time of transplanting or else after transplanting. Application times are conventionally referred to as "days before transplant" (DBT) or "days after transplant" ("DAT"). The field test data in Table IV was obtained from a test in which the herbicides were applied at the time of transplant, i.e., "0 DAT", with observations being made weekly up to six weeks after transplant ("WAT") beginning at two weeks after transplant; for illustrative and representative purposes, only the early, middle and late period observations, i.e., 2 WAT, 4 WAT and 6 WAT, are shown in Table IV. The data in Table IV is for rates of application common to all herbicides in the test, i.e., from 3.0 kg/ha (2.67 lb/A) down to 0.375 kg/ha (0.34 lb/A). All herbicides were applied at their actual or expected use rates, i.e., as granules containing 2.5% by weight herbicide for the compound of Example 1, Compounds B, C and D and 5.0% by weight for Compound A.

[2] = tested on: Rice; experiment: Field transplant rice test, applied 9 DAT, rice injury; details: Oryza sativa, 216 h, read-out: Percent Inhibition, Rice; for inhibition at 375 g/ha: 0.375 Kg/Ha; for inhibition at 750 g/ha: 0.75 Kg/Ha; for inhibition at 1500 g/ha: 1.5 Kg/Ha; for inhibition at 3000 g/ha: 3.0 Kg/Ha
Description: as §2
(§3) In Table V are presented field data showing the relative performance of the compound of Example 1 and Compounds A-D applied 9 DAT, with observations being made weekly from 3 WAT to 7 WAT; again, for illustrative and representative purposes, only the early, middle and late period observations are reported in Table V, the herbicide rates and concentrations of active ingredients the same as is shown in Table IV.

[3] = tested on: Sagittaria trifolia; experiment: Field transplant rice test, applied 9 DAT, ST; details: 216 h, read-out: Percent Inhibition, ST; for inhibition at 375 g/ha: 0.375 Kg/Ha; for inhibition at 750 g/ha: 0.75 Kg/Ha; for inhibition at 1500 g/ha: 1.5 Kg/Ha; for inhibition at 3000 g/ha: 3.0 Kg/Ha
Description: as §1, §2, §3

[4] = tested on: Cyperus serotinus; experiment: Greenhouse transplant rice test, CS; details: about 3 WAT, read-out: Percent Inhibition, CS
Excerpt: The test procedure used in this greenhouse test is as follows: Ray silt loam top soil containing about 0.05% by weight of krillium and sifted through a […] screen is fumigated about 5-10 days prior to use. Pots are then filled with said Ray silt loam soil to a level to allow for a 1 in. (2.54 cm) flooding depth. Rice plants (Bluebelle) of 2 to 3 weeks age are transplanted to the pots and bulbs or seeds of the test weeds also planted in the pots. The pots are then flooded and the test chemical applied to the surface of the flood water. The flood water is reduced to allow for germination of the Echinochloa crus-galli (barnyardgrass) seed and subsequently reflooded and maintained in that condition. Observations of percent inhibition using a scale of 0-100% are made about 3 weeks after transplant (WAT).
as §1

Row | SMILES | inhibition at 375 g/ha ([1]; 2 WAT) [%] | inhibition at 375 g/ha ([1]; 4 WAT) [%] | inhibition at 375 g/ha ([1]; 6 WAT) [%] | inhibition at 750 g/ha ([1]; 2 WAT) [%] | inhibition at 750 g/ha ([1]; 4 WAT) [%] | inhibition at 750 g/ha ([1]; 6 WAT) [%] | inhibition at 1500 g/ha ([1]; 2 WAT) [%] | inhibition at 1500 g/ha ([1]; 4 WAT) [%] | inhibition at 1500 g/ha ([1]; 6 WAT) [%] | inhibition at 3000 g/ha ([1]; 2 WAT) [%] | inhibition at 3000 g/ha ([1]; 4 WAT) [%] | inhibition at 3000 g/ha ([1]; 6 WAT) [%] | inhibition at 375 g/ha ([2]; 3 WAT) [%] | inhibition at 375 g/ha ([2]; 5 WAT) [%] | inhibition at 375 g/ha ([2]; 7 WAT) [%] | inhibition at 750 g/ha ([2]; 3 WAT) [%] | inhibition at 750 g/ha ([2]; 5 WAT) [%] | inhibition at 750 g/ha ([2]; 7 WAT) [%] | inhibition at 1500 g/ha ([2]; 3 WAT) [%] | inhibition at 1500 g/ha ([2]; 5 WAT) [%] | further results
1 | CCCCOCN(C(=O)CCl)c1c(C)cccc1C(C)(C)C [Compound C, 2'-methyl-6'-tert-butyl-N-(n-butoxymethyl)-2-chloroacetanilide] | 30 | 5 | 0 | 33 | 18 | 8 | 38 | 30 | 17 | 53 | 35 | 18 | 17 | 8 | 10 | 10 | 7 | 8 | 18 | 15 | inhibition at 1500 g/ha ([2]; 7 WAT): 13%; inhibition at 3000 g/ha ([2]; 3 WAT): 10%; inhibition at 3000 g/ha ([2]; 5 WAT): 5%; inhibition at 3000 g/ha ([2]; 7 WAT): 8%; inhibition at 375 g/ha ([3]; 3 WAT): 47%; inhibition at 375 g/ha ([3]; 5 WAT): 10%; inhibition at 375 g/ha ([3]; 7 WAT): 2%; inhibition at 750 g/ha ([3]; 3 WAT): 32%; inhibition at 750 g/ha ([3]; 5 WAT): 8%; inhibition at 750 g/ha ([3]; 7 WAT): 0%; inhibition at 1500 g/ha ([3]; 3 WAT): 48%; inhibition at 1500 g/ha ([3]; 5 WAT): 17%; inhibition at 1500 g/ha ([3]; 7 WAT): 7%; inhibition at 3000 g/ha ([3]; 3 WAT): 30%; inhibition at 3000 g/ha ([3]; 5 WAT): 13%; inhibition at 3000 g/ha ([3]; 7 WAT): 3%
2 | CCCCOCCN(C(=O)CCl)c1c(CC)cccc1CC [Compound B, 2',6'-diethyl-N-(n-butoxyethyl)-2-chloroacetanilide] | 27 | 10 | 5 | 27 | 15 | 7 | 62 | 12 | 7 | 32 | 30 | 13 | 12 | 0 | 5 | 12 | 5 | 3 | 10 | 2 | inhibition at 1500 g/ha ([2]; 7 WAT): 5%; inhibition at 3000 g/ha ([2]; 3 WAT): 12%; inhibition at 3000 g/ha ([2]; 5 WAT): 5%; inhibition at 3000 g/ha ([2]; 7 WAT): 2%; inhibition at 375 g/ha ([3]; 3 WAT): 5%; inhibition at 375 g/ha ([3]; 5 WAT): 2%; inhibition at 375 g/ha ([3]; 7 WAT): 5%; inhibition at 750 g/ha ([3]; 3 WAT): 38%; inhibition at 750 g/ha ([3]; 5 WAT): 12%; inhibition at 750 g/ha ([3]; 7 WAT): 10%; inhibition at 1500 g/ha ([3]; 3 WAT): 40%; inhibition at 1500 g/ha ([3]; 5 WAT): 25%; inhibition at 1500 g/ha ([3]; 7 WAT): 13%; inhibition at 3000 g/ha ([3]; 3 WAT): 42%; inhibition at 3000 g/ha ([3]; 5 WAT): 25%; inhibition at 3000 g/ha ([3]; 7 WAT): 12%
3 | CCCOCCN(C(=O)CCl)c1c(CC)cccc1CC [Compound D, 2',6'-diethyl-N-(n-propoxyethyl)-2-chloroacetanilide] | 20 | 2 | 0 | 28 | 10 | 7 | 23 | 27 | 22 | 22 | 28 | 18 | 8 | 7 | 7 | 10 | 5 | 2 | 10 | 5 | inhibition at 1500 g/ha ([2]; 7 WAT): 7%; inhibition at 3000 g/ha ([2]; 3 WAT): 15%; inhibition at 3000 g/ha ([2]; 5 WAT): 5%; inhibition at 3000 g/ha ([2]; 7 WAT): 8%; inhibition at 375 g/ha ([3]; 3 WAT): 45%; inhibition at 375 g/ha ([3]; 5 WAT): 12%; inhibition at 375 g/ha ([3]; 7 WAT): 7%; inhibition at 750 g/ha ([3]; 3 WAT): 42%; inhibition at 750 g/ha ([3]; 5 WAT): 25%; inhibition at 750 g/ha ([3]; 7 WAT): 18%; inhibition at 1500 g/ha ([3]; 3 WAT): 43%; inhibition at 1500 g/ha ([3]; 5 WAT): 25%; inhibition at 1500 g/ha ([3]; 7 WAT): 22%; inhibition at 3000 g/ha ([3]; 3 WAT): 73%; inhibition at 3000 g/ha ([3]; 5 WAT): 60%; inhibition at 3000 g/ha ([3]; 7 WAT): 52%
4 | CCCCOCN(C(=O)CCl)c1c(CC)cccc1CC [Compound A, 2',6'-diethyl-N-(n-butoxymethyl)-2-chloroacetanilide] | 37 | 22 | 7 | 52 | 20 | 15 | 60 | 33 | 20 | 42 | 33 | 12 | 10 | 8 | 8 | 13 | 3 | 7 | 12 | 7 | inhibition at 280 g/ha ([4]; 0.28 Kg/Ha): 100%; inhibition at 560 g/ha ([4]; 0.56 Kg/Ha): 85%; inhibition at 1120 g/ha ([4]; 1.12 Kg/Ha): 90%; inhibition at 2240 g/ha ([4]; 2.24 Kg/Ha): 100%; inhibition at 1500 g/ha ([2]; 7 WAT): 5%; inhibition at 3000 g/ha ([2]; 3 WAT): 12%; inhibition at 3000 g/ha ([2]; 5 WAT): 7%; inhibition at 3000 g/ha ([2]; 7 WAT): 5%; inhibition at 375 g/ha ([3]; 3 WAT): 37%; inhibition at 375 g/ha ([3]; 5 WAT): 12%; inhibition at 375 g/ha ([3]; 7 WAT): 7%; inhibition at 750 g/ha ([3]; 3 WAT): 26%; inhibition at 750 g/ha ([3]; 5 WAT): 10%; inhibition at 750 g/ha ([3]; 7 WAT): 8%; inhibition at 1500 g/ha ([3]; 3 WAT): 35%; inhibition at 1500 g/ha ([3]; 5 WAT): 5%; inhibition at 1500 g/ha ([3]; 7 WAT): 3%; inhibition at 3000 g/ha ([3]; 3 WAT): 52%; inhibition at 3000 g/ha ([3]; 5 WAT): 23%; inhibition at 3000 g/ha ([3]; 7 WAT): 13%
